Series [1] deals with Mtb H37Rv. Nature of the series: In vitro qHTS assay against Mtb H37Rv (IC90). In kind it is cell-based, M. tuberculosis. Conditions: for IC90: read-out: Mtb H37Rv IC90; for fold more active against Mtb H37Rv than corresponding analog: 48 vs 23, 57 vs 56, 60 vs 24. In general terms: Quantitative high-throughput screening tests each substance at several concentrations.
For series [2], the system named is Mtb H37Ra (ATCC 25177). Nature of the series: In vitro screen versus Mtb H37Ra (Alamar blue microdilution broth assay, MIC99). In kind it is cell-based, M. tuberculosis. Conditions: Mycobacterium tuberculosis; lowest drug concentration that completely inhibited growth; read-out: Mtb H37Ra MIC99. How it is done:
The initial screening set and selected other compounds were tested for their inhibitory activity against Mtb H37Ra (ATCC 25177) and MAC NJ211 strains. Screening was performed at 1.28 and 12.8 μg/mL in Middlebrook 7H9 broth supplemented with 0.2% glycerol and ADC enrichment using a colorimetric (Alamar blue) microdilution broth assay by reported methods.[15]

Where [3] appears, read: Mycobacterium tuberculosis, H37RV, concentration that inhibits bacterial growth by 90%.
[4] abbreviates: concentration that inhibits bacterial growth by 90%.

Values after ≈ are worked out from the molar mass of the structure shown. Like-named read-outs stand apart in the source and are kept apart here.

The values that follow come from publication PMC5074515 (PLoS ONE, 2016).

The IC90 is the concentration at which the effect reaches the 90% level. One may read the melting point as the temperature, or range, at which the solid turns liquid. Compound `CC1=C(CC(=O)NCCN(C)C)c2cc(F)ccc2/C1=C\c1nc2ccccc2s1` [Compound 38, (Z)-2-(1-(Benzo[d]thiazol-2-ylmethylene)-5-fluoro-2-methyl-1H-inden-3-yl)-N-(2-(dimethylamino)ethyl)acetamide] returned a melting point of 132 to 135 °C. The IC90 in series [1] (setting [3]) worked out at 4.75 ± 0.05 µM.

Take `CSc1ccc(/C=C2/C(C)=C(C(C)C(=O)N(C)CCN(C)C)c3cc(F)ccc32)cc1` (stereo not drawn) [Compound 45, (Z)-N-(2-(Dimethylamino)ethyl)-2-(5-fluoro-2-methyl-1-(4-(methylthio)benzylidene)-1H-inden-3-yl)-N-methylpropanamide]: the IC90 in series [1] (setting [3]) worked out at 5.95 ± 0.06 µM.

For the compound `CCCCN(CCCC)CCCNC(=O)C(C)C1=C(C)/C(=C/c2ccc(SC)cc2)c2ccc(F)cc21` (stereo not drawn) [Compound 47, (Z)-N-(3-(Dibutylamino)propyl)-2-(5-fluoro-2-methyl-1-(4-(methylthio)benzylidene)-1H-inden-3-yl)propanamide], the melting point fell in the range of 121 to 124 °C. In addition, the IC90 in series [1] (setting [3]) is 1.22 ± 0.04 µM.

As to “(Z)-N-(3-(Dibutylamino)propyl)-2-(5-fluoro-2-methyl-1-(4-(methylthio)benzylidene)-1H-inden-3-yl)acetamide [Compound 22]”, in series [1] (setting [4]), the IC90 stood at 0.85 µM.

Regarding `CNCCN(C)C(=O)C(C)C1=C(C)/C(=C/c2ccc(SC)cc2)c2ccc(F)cc21` (stereo not drawn) [Compound 48, (Z)-2-(5-Fluoro-2-methyl-1-(4-(methylthio)benzylidene)-1H-inden-3-yl)-N-methyl-N-(2-(methylamino)ethyl)propanamide], the “fold more active against Mtb H37Rv than corresponding analog” value in series [1] amounted to 4 fold. The IC90 in series [1] (setting [3]) came to 2.11 ± 0.08 µM.

Turning to `CSc1ccc(/C=C2/C(C)=C(CC(=O)N3CCN(c4ccncc4)CC3)c3cc(F)ccc32)cc1` [Compound 32, (Z)-2-(5-Fluoro-2-methyl-1-(4-(methylthio)benzylidene)-1H-inden-3-yl)-1-(4-(pyridin-4-yl)piperazin-1-yl)ethanone], the melting point is 171 to 174 °C. Also, the IC90 in series [1] (setting [3]) was found to be 3.07 ± 0.04 µM.

As for `CSc1ccc(/C=C2/C(C)=C(C(C)C(=O)N3CCN(c4ccncc4)CC3)c3cc(F)ccc32)cc1` (stereo not drawn) [Compound 55, (Z)-2-(5-Fluoro-2-methyl-1-(4-(methylthio)benzylidene)-1H-inden-3-yl)-1-(4-(pyridin-4-yl)piperazin-1-yl)propan-1-one], in series [1] (setting [3]), the IC90 stood at 2.89 ± 0.09 µM.

Regarding `CCN(CC)CCNC(=O)CC1=C(C)/C(=C/c2nc3ccccc3s2)c2ccc(F)cc21` [Compound 40, (Z)-2-(1-(Benzo[d]thiazol-2-ylmethylene)-5-fluoro-2-methyl-1H-inden-3-yl)-N-(2-(diethylamino)ethyl)acetamide], the melting point lay in the range of 127 to 130 °C. Further, in series [1] (setting [3]), the IC90 came to 3.47 ± 0.04 µM.

Consider `CSc1ccc(/C=C2/C(C)=C(CC(=O)N3CCN(CCCN(C)C)CC3)c3cc(F)ccc32)cc1` [Compound 31, (Z)-1-(4-(3-(Dimethylamino)propyl)piperazin-1-yl)-2-(5-fluoro-2-methyl-1-(4-(methylthio)benzylidene)-1H-inden-3-yl)ethanone], for which the melting point fell in the range of 131 to 134 °C. Moreover, in series [1] (setting [3]), the IC90 amounted to 9.55 ± 0.31 µM.

Consider `CSc1ccc(/C=C2/C(C)=C(CC(=O)NCc3ccccc3)c3cc(F)ccc32)cc1` [Compound 34, (Z)-N-Benzyl-2-(5-fluoro-2-methyl-1-(4-(methylthio)benzylidene)-1H-inden-3-yl)acetamide], for which the melting point was in the range of 171 to 174 °C. The IC90 in series [1] (setting [3]) was over 100 µM. Further, in series [1] (setting [4]), the “Mtb H37Rv IC90” value was “inactive”.

The compound `CCN(CC)CCNC(=O)CC1=C(C)/C(=C/c2ccc(SC)cc2)c2ccc(F)cc21` [Compound 20, (Z)-N-(2-(Diethylamino)ethyl)-2-(5-fluoro-2-methyl-1-(4-(methylthio)benzylidene)-1H-inden-3-yl)acetamide] showed a melting point of 98 to 100 °C. Moreover, the IC90 in series [1] (setting [3]) turned out to be 3.59 ± 0.06 µM.

`CCN1CCC[C@H]1CNC(=O)C(C)C1=C(C)/C(=C/c2ccc(SC)cc2)c2ccc(F)cc21` (stereo partly drawn) [Compound 51, N-(((S)-1-Ethylpyrrolidin-2-yl)methyl)-2-((Z)-5-fluoro-2-methyl-1-(4-(methylthio)benzylidene)-1H-inden-3-yl)propanamide]: the IC90 in series [1] (setting [3]) is 2.41 ± 0.04 µM.

On to `CC1=C(CC(=O)N2CCC[C@H]2CN2CCCC2)c2cc(F)ccc2/C1=C\c1nc2ccccc2s1` [Compound 43, (S,Z)-2-(1-(Benzo[d]thiazol-2-ylmethylene)-5-fluoro-2-methyl-1H-inden-3-yl)-1-(2-(pyrrolidin-1-ylmethyl)pyrrolidin-1-yl)ethanone], for which the melting point was 79 to 81 °C. Also, the IC90 in series [1] (setting [3]) came out at 3.68 ± 0.11 µM.

`CSc1ccc(/C=C2/C(C)=C(C(C)C(=O)N(C)CCN(C)C(=O)[C@@H](N)C(C)C)c3cc(F)ccc32)cc1` (stereo partly drawn) [Compound 57, (2S)-2-Amino-N-(2-(2-((Z)-5-fluoro-2-methyl-1-(4-(methylthio)benzylidene)-1H-inden-3-yl)-N-methylpropanamido)ethyl)-N,3-dimethylbutanamide] showed a melting point of 60 to 62 °C. Further, the “fold more active against Mtb H37Rv than corresponding analog” value in series [1] was 6 fold. Also, the IC90 in series [1] (setting [3]) was found to be 0.74 µM.

Turning to `CSc1ccc(/C=C2/C(C)=C(C(C)C(=O)NCCN(C)C)c3cc(F)ccc32)cc1` (stereo not drawn) [Compound 44, (Z)-N-(2-(Dimethylamino)ethyl)-2-(5-fluoro-2-methyl-1-(4-(methylthio)benzylidene)-1H-inden-3-yl)propanamide], in series [1] (44 vs 18), the “fold less active against Mtb H37Rv than desmethyl analog” value is 2 fold. Further, the IC90 in series [1] (setting [3]) worked out at 13.6 ± 0.89 µM.

Take `CC1=C(CC(=O)NCCN2CCCC2)c2cc(F)ccc2/C1=C\c1nc2ccccc2s1` [Compound 41, (Z)-2-(1-(Benzo[d]thiazol-2-ylmethylene)-5-fluoro-2-methyl-1H-inden-3-yl)-N-(2-(pyrrolidin-1-yl)ethyl)acetamide]: in series [1] (setting [3]), the IC90 was 6.7 ± 0.04 µM.

For `CSc1ccc(/C=C2/C(C)=C(C(C)C(=O)N3CCC[C@H]3CN3CCCC3)c3cc(F)ccc32)cc1` (stereo partly drawn) [Compound 52, 2-((Z)-5-Fluoro-2-methyl-1-(4-(methylthio)benzylidene)-1H-inden-3-yl)-1-((S)-2-(pyrrolidin-1-ylmethyl)pyrrolidin-1-yl)propan-1-one], the melting point lay in the range of 80 to 82 °C. For the same compound, the IC90 in series [1] (setting [3]) turned out to be 2.55 ± 0.03 µM.

In turn, `CSc1ccc(/C=C2/C(C)=C(C(C)C(=O)N3CCN(CCCN(C)C)CC3)c3cc(F)ccc32)cc1` (stereo not drawn) [Compound 54, (Z)-1-(4-(3-(Dimethylamino)propyl)piperazin-1-yl)-2-(5-fluoro-2-methyl-1-(4-(methylthio)benzylidene)-1H-inden-3-yl)propan-1-one] displayed a melting point of 78 to 80 °C. The IC90 in series [1] (setting [3]) came to 3.72 ± 0.06 µM.

Regarding `CSc1ccc(/C=C2/C(C)=C(CC(=O)NCCC3CCCN3C)c3cc(F)ccc32)cc1` (stereo not drawn) [Compound 27, (Z)-2-(5-Fluoro-2-methyl-1-(4-(methylthio)benzylidene)-1H-inden-3-yl)-N-(2-(1-methylpyrrolidin-2-yl)ethyl)acetamide], the IC90 in series [1] (setting [3]) is 4.34 ± 0.16 µM.

`CCN(CC)CCCNC(=O)CC1=C(C)/C(=C/c2ccc(SC)cc2)c2ccc(F)cc21` [Compound 21, (Z)-N-(3-(Diethylamino)propyl)-2-(5-fluoro-2-methyl-1-(4-(methylthio)benzylidene)-1H-inden-3-yl)acetamide] registered a melting point of 78 to 81 °C. Moreover, the IC90 in series [1] (setting [3]) is 4.36 ± 0.07 µM.

Take `CSc1ccc(/C=C2/C(C)=C(C(C)C(=O)NCCN3CCCCC3)c3cc(F)ccc32)cc1` (stereo not drawn) [Compound 49, (Z)-2-(5-Fluoro-2-methyl-1-(4-(methylthio)benzylidene)-1H-inden-3-yl)-N-(2-(piperidin-1-yl)ethyl)propanamide]: the IC90 in series [1] (setting [3]) turned out to be 1.99 ± 0.06 µM.

The compound `CCN1CCC[C@H]1CNC(=O)CC1=C(C)/C(=C/c2ccc(SC)cc2)c2ccc(F)cc21` [Compound 28, (S,Z)-N-((1-Ethylpyrrolidin-2-yl)methyl)-2-(5-fluoro-2-methyl-1-(4-(methylthio)benzylidene)-1H-inden-3-yl)acetamide] came in with a melting point of 74 to 76 °C. In addition, the IC90 in series [1] (setting [3]) was 3.98 ± 0.03 µM.

The compound `CSc1ccc(/C=C2/C(C)=C(CC(=O)NCCCN3CCCCC3C)c3cc(F)ccc32)cc1` (stereo not drawn) [Compound 25, (Z)-2-(5-Fluoro-2-methyl-1-(4-(methylthio)benzylidene)-1H-inden-3-yl)-N-(3-(2-methylpiperidin-1-yl)propyl)acetamide] had a melting point of 84 to 86 °C. In addition, the concentration for an effect of 90% (IC90) in series [1] (setting [3]) came to 5.41 ± 0.11 µM.

`CCN(CC)CCNC(=O)C(C)C1=C(C)/C(=C/c2ccc(SC)cc2)c2ccc(F)cc21` (stereo not drawn) [Compound 46, (Z)-N-(2-(Diethylamino)ethyl)-2-(5-fluoro-2-methyl-1-(4-(methylthio)benzylidene)-1H-inden-3-yl)propanamide] registered a melting point of 75 to 77 °C. Moreover, in series [1] (setting [3]), the concentration for an effect of 90% (IC90) was determined as 4.19 ± 0.2 µM.

On to `COC(=O)[C@H](C)NC(=O)CC1=C(C)/C(=C/c2ccc(SC)cc2)c2ccc(F)cc21` [Compound 37, (S,Z)-Methyl 2-(2-(5-fluoro-2-methyl-1-(4-(methylthio)benzylidene)-1H-inden-3-yl)acetamido)propanoate], for which the melting point fell in the range of 151 to 154 °C. The IC90 in series [1] (setting [3]) was determined as 3.04 ± 0.1 µM.

Turning to `CSc1ccc(/C=C2/C(C)=C(C(C)C(=O)N3CCC(N4CCCCC4)CC3)c3cc(F)ccc32)cc1` (stereo not drawn) [Compound 53, (Z)-1-([1,4'-Bipiperidin]-1'-yl)-2-(5-fluoro-2-methyl-1-(4-(methylthio)benzylidene)-1H-inden-3-yl)propan-1-one], the melting point is 80 to 82 °C. The IC90 in series [1] (setting [3]) amounted to 2.84 ± 0.06 µM.

Broadly, the MIC99 is an inhibitory concentration at the 99% level, which refers to growth in some studies and to a panel of isolates in others. In the case of `CC(=O)O[C@H]1C(=O)[C@@]2(C)[C@H]([C@H](OC(=O)c3ccccc3)[C@]3(O)C[C@H](OC(=O)[C@H](O)[C@@H](NC(=O)c4ccccc4)c4ccccc4)C(C)=C1C3(C)C)[C@]1(OC(C)=O)CO[C@@H]1C[C@@H]2O` [Compound 14, Taxol], the MIC99 in series [2] was 16 µg/mL (≈ 18.7 µM).
